Values of other authors as cited in US20130048853A1, “Adsorbent and Method for Producing Same” (HITACHI HIGH-TECHNOLOGIES CORPORATION, priority 2010, published 2013).
Values joined by “and” are separate entries in the source; they are usually repeats but may differ in a detail not shown here. Equal entries are not always repeated. Where two headings read alike, the source gives them in different places.

[1] = source not stated, calculated or actual values may be applied

Compound	logP (octanol-water distribution coefficient) [1]	logP (octanol-water distribution coefficient)
CO[C@H]1C[C@@H]2CC[C@@H](C)[C@@](O)(O2)C(=O)C(=O)N2CCCC[C@H]2C(=O)O[C@H]([C@H](C)C[C@@H]2CC[C@@H](OCCO)[C@H](OC)C2)CC(=O)[C@H](C)/C=C(\C)[C@@H](O)[C@@H](OC)C(=O)[C@H](C)C[C@H](C)/C=C/C=C/C=C/1C [everolimus]	3.4 and 3.35	–
O=C1NC(=O)C(c2ccccc2)(c2ccccc2)N1 [phenyloin]	–	2.5
CO[C@H]1C[C@@H]2CC[C@@H](C)[C@@](O)(O2)C(=O)C(=O)N2CCCC[C@H]2C(=O)O[C@H]([C@H](C)C[C@@H]2CC[C@@H](O)[C@H](OC)C2)CC(=O)[C@H](C)/C=C(\C)[C@@H](O)[C@@H](OC)C(=O)[C@H](C)C[C@H](C)/C=C/C=C/C=C/1C [rapamycin]	3.5	–
